Test [1] deals with 47S rRNA precursor in HEK293T cells. The experiment in a line: Fluorescence in situ hybridization (FISH) of 47S precursor rRNA. In kind it is cell-based, human. The settings on record: HEK293T cells expressing F185A. The method, then:
We next examined the mechanistic link between KDM4A-mediated promoter demethylation and rRNA upregulation (Figure 7A). To confirm that KDM4A specifically stimulates rRNA synthesis, we performed fluorescence in situ hybridization (FISH) using a fluoresceine-attached short DNA complementary to the 47S rRNA precursor. Overexpression of wild type KDM4A and its as variant indeed led to increased expression of the precursor rRNA compared to that of the control vector (Figure 7B,C).
(Sigma B2883-25MG) for 30 seconds, washed with PBS and finally adhered to a slide with gelvatol. The cells were imaged at University of Pittsburgh Center for Biological Imaging on an Olympus Fluoview 1000 II, grant number 1S10OD019973-01 using excitation and emission wavelengths corresponding to that of Rhodamine. Images were analyzed on ImageJ open-source software and NIS elements software.
17. Analysis of rRNA expression in HEK293T cells using fluorescence in-situ hybridization HEK293-T cells (ATCC CRL-1573) were grown in a 24 well plate (Corning) on poly-D-lysine (Gibco A3890401) treated glass coverslips (ThermoScientific 12-545-81P) overnight and transfected the next day with 500 ng KDM4A WT/F185A or Empty Vector (EV) equivalent using 1:2 ug of Thermo Turbofect (FERR0531). […] Images were analyzed on ImageJ open-source software and NIS elements software. […]

The target of a further test is T1, ALKBH5 (Homo sapiens, UniProt Q6P6C2).
T1 construct: we recombinantly expressed the catalytic domains of 12 wild type dioxygenases; His; made in house; host or cells: E. coli BL21 (DE3)
Nature of the test: MALDI-based assay on m6A RNA substrate. In kind it is biochemical. Particulars: MALDI-TOF, m6A oligonucleotide. How it is done: (§1) MALDI-based assay for FTO and ALKBH5: To determine the enzymatic activity of FTO and
(§2) ALKBH5 recombinant proteins in the presence of L-Leu NOG 6, a previously published methods
(§3) were utilized.15, 18 Briefly,10 µM of each protein was incubated in the presence of 10 µM RNA
(§4) 7.5, 150 mM KCl, 50 µM L-Leu NOG or equivalent volume of water in 10 µL aliquots. The
(§5) samples were placed on ice for 10 minutes followed by addition of 200 µM 2OG or equivalent
(§6) volume of water. After incubation at 37 °C for 30 minutes, samples were desalted with 3 µL of BT
(§7) spotted on a MALDI plate with 1uL sample and 1uL of 3-HPA matrix and monitored with Bruker
(§8) FlexControl in the reflectron negative mode and analyzed on Bruker FlexAnalysis software.

The target in the next test is T2, FTO (Homo sapiens, UniProt Q9C0B1).
T2 construct: we recombinantly expressed the catalytic domains of 12 wild type dioxygenases; His (N); made in house; host or cells: E. coli BL21 (DE3)
The experiment in a line: MALDI-based assay on m6A RNA substrate. In kind it is biochemical. Particulars: MALDI-TOF, m6A oligonucleotide. The method, then:
as §1, §2, §3, §4, §5, §6, §7, §8

The text below walks through data of paper PMC11783601, “Analogue-Sensitive Inhibition of Histone Demethylases Uncovers Member-Specific Function in Ribosomal Protein Synthesis” (Journal of the American Chemical Society, 2025).

Entries after “also recorded” stand apart in the source; their conditions may differ.

T2 sequence (Q9C0B1 32-327 limits assumed): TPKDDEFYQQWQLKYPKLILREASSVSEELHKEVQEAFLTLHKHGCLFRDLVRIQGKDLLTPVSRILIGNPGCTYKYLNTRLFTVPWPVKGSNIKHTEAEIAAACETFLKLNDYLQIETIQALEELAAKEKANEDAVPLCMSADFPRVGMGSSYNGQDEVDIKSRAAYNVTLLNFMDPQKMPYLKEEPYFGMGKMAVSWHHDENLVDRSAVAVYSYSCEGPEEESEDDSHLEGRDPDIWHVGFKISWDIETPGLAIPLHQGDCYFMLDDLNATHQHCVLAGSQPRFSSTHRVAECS
T1 sequence (Q6P6C2 67-394 limits assumed): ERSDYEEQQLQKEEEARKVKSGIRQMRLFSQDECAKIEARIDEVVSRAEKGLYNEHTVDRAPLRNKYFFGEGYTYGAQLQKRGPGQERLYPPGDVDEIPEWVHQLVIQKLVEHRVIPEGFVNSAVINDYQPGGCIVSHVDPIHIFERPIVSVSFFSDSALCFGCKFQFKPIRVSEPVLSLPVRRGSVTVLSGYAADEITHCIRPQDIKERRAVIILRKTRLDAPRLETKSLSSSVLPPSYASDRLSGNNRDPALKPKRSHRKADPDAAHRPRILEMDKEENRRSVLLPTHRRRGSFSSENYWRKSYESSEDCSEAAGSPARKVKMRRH

With `CC(C)CC(NC(=O)C(=O)OCc1cccc(C(F)(F)F)c1)C(=O)O` [6B, L-Leu TFMB-ester NOG], in test [1], the “transcription of the 47S precursor rRNA” value was “significantly reduced; also recorded: decreased expression of pre-rRNA”.
For the molecule `CC(C)CC(NC(=O)C(=O)O)C(=O)O` (stereo not drawn) [compound 6, N-oxalyl leucine], on ALKBH5, the “inhibition of ALKBH5” value is on record as “No inhibition”. Further, the “inhibition of FTO” value against FTO is recorded as “No inhibition”.
